Test [1] concerns Escherichia coli. The test can be described thus: Compound was evaluated for its ability to inhibit MurG enzyme for the conversion of Lipid I to lipid II in the coupled MraY/MurG assay; NI is No inhibition at 238 ug/mL.
A short description of test [2]: Compound was evaluated for its ability to inhibit MurG enzyme for the conversion of Lipid I to lipid II in MurG enzyme assay. Details: species or system Escherichia coli.
Test [3] deals with Escherichia coli. Description: Compound was evaluated for its ability to inhibit the formation of peptidoglycan by incorporation of [14C]GlcNAc into TCA insoluble, filter-capturable material; NI is No Inhibition at 200 ug/mL. Type of test: functional, organism-based.
Test [4] relates to Escherichia coli. The test can be described thus: Compound was evaluated for its ability to inhibit MraY enzyme for the conversion of Lipid I to lipid II in the coupled MraY/MurG assay; Ni is No Inhibition at 238 ug/mL.
Test [5] can be described thus: Compound was evaluated for its ability to inhibit MraY enzyme for the conversion of Lipid I to lipid II in coupled MraY/MurG assay; NI is No Inhibition at 234 ug/mL. Set-up: species or system Escherichia coli.
Test [6] relates to Escherichia coli. Description: Compound was evaluated for its ability to inhibit MraY enzyme for the conversion of Lipid I to lipid II in the coupled MraY/MurG assay; Ni is No Inhibition at 234 ug/mL.
Test [7] deals with Escherichia coli. The test can be described thus: Compound was evaluated for its ability to inhibit MurG enzyme for the conversion of Lipid I to lipid II in MurG enzyme assay; NI is No Inhibition at 234 ug/mL.
Test [8] concerns Escherichia coli. The test can be described thus: (§1) Compound was evaluated for its ability to inhibit MurG enzyme for the conversion of Lipid I to lipid II in coupled MraY/MurG assay; NI is No Inhibition at 234 ug/mL.
Test [9] can be described thus: as §1. Details: species or system Escherichia coli.
For test [10], the system named is Escherichia coli. The test can be described thus: Compound was evaluated for its ability to inhibit MurG enzyme for the conversion of Lipid I to lipid II in coupled MraY/MurG assay; NI is No Inhibition at 256 ug/mL.
Test [11] has as its system Escherichia coli. The test can be described thus: Compound was evaluated for its ability to inhibit MraY enzyme for the conversion of Lipid I to lipid II in the coupled MraY/MurG assay; Ni is No Inhibition at 256 ug/mL.
In test [12] the test system is Escherichia coli. The test can be described thus: Compound was evaluated for its ability to inhibit MurG enzyme for the conversion of Lipid I to lipid II in MurG enzyme assay; NI is No Inhibition at 256 ug/mL.

≈ marks a conversion by molar mass, not a printed value. A value given as a limit tells only on which side of the number the result lay.

As for `CC(=O)NC1C(OP(=O)(O)O)OC(CO)C(O)C1O[C@@H](C)C(=O)N[C@@H](C)C(=O)N[C@H](CCC(=O)N[C@@H](CCCCN)C(=O)N[C@H](C)C(=O)N[C@H](C)C(=O)O)C(=O)O` (some centres undefined), the Activity result in the test with Escherichia coli [1], with Escherichia coli [3] and in the test on Escherichia coli [4] was “No inhibition” throughout. The IC50 in test [2] was 50 µg/mL (≈ 59.3 µM).
Molecule `CC(=O)N[C@H]1[C@@H](O[C@@H]2O[C@H](CC(O)[C@H]3O[C@@H](n4ccc(=O)[nH]c4=O)[C@H](O)[C@@H]3O)[C@H](O)[C@H](O)[C@H]2NC(=O)/C=C/CC(C)C)O[C@H](CO)[C@@H](N)[C@@H]1O` (some centres undefined) [TUNICAMYCIN] registered an IC50 in [5] of less than 1 µg/mL.
Regarding `CC(=O)NC1C(Sc2ccccc2)OC(CO)C(O)C1O[C@@H](C)C(=O)N[C@@H](C)C(=O)N[C@H](CCC(=O)N[C@@H](CCCCN)C(=O)N[C@H](C)C(=O)N[C@H](C)C(=O)O)C(=O)O` (some centres undefined), the Activity result in the test on Escherichia coli [6], in the test with Escherichia coli [3], with Escherichia coli [7] and with Escherichia coli [8] was “No inhibition” each time.
RAMOPLANIN had an IC50 in [9] of less than 1 µg/mL.
Take `COC1OC(CO)C(O)C(O[C@@H](C)C(=O)N[C@@H](C)C(=O)N[C@H](CCC(=O)N[C@@H](CCCCN)C(=O)N[C@H](C)C(=O)N[C@H](C)C(=O)O)C(=O)O)C1NC(C)=O` (some centres undefined): the Activity result with Escherichia coli [10], with Escherichia coli [11], with Escherichia coli [3] and in the test with Escherichia coli [12] was “No inhibition” each time.

For orientation: IC50 means the concentration that gives 50% inhibition.

(Values after ChEMBL document CHEMBL1133149, “Synthesis and biological evaluation of analogues of bacterial lipid I” (Bioorg Med Chem Lett, 2000).)
